The record followed here is US20250222120A1, “SYNTHESIS OF NOVEL SMALL MOLECULE CARM1 DEGRADERS, COMPOUNDS FORMED THEREBY, AND PHARMACEUTICAL COMPOSITIONS CONTAINING THEM” (Wisconsin Alumni Research Foundation, priority 2024, published 2025).

Assay [1] deals with BAF155 me2a. As to the kind of experiment: BAF155 me2a level in BT474 cells, western blot. The class given is cell-based. Particulars: 0.5 μM, after 48 h. The text has this:
(§1) FIGS. 7A-7F. […] Cell lysates were collected and CARM1, methyl-BAF155, total BAF155, methyl-PABP1, and total PABP1 levels were detected by Western blot. […] Cell lysates were collected and CARM1, methyl-BAF155, total BAF155 levels were detected by Western blot. […] Cell proliferation rate normalized to day 0 was plotted. […] Migrated cells were stained with 1% crystal violet and the percentage of migrated cells were plotted. Data mean±s.d. ***. P≤0.001.
(§2) Western Blot Assay. Cells were harvested and washed with Dulbecco's phosphate-buffered saline (PBS), then lysed with 1×RIPA lysis buffer (50 mM Tris pH 7.5, 150 mM NaCl, 1% NP-40, 0.5% sodium deoxycholate, and 0.1% sodium dodecyl sulfate) supplemented with 1 mM phenylmethylsulfonyl fluoride, 10 μg/mL aprotinin, 1 μM leupeptin, and 10 μg/mL pepstatin on ice for 20 min. The supernatant was collected after spinning down at 15000 RPM at 4 degrees Celsius for 10 min. The concentration of whole lysates was quantified using a Bradford assay. 50-75 μg of cell lysates was boiled in 4× Laemmli Loading Dye and boiled at 100 degrees Celsius for 10 min. 25 μg were run in 8% SDS-PAGE gels and transferred to nitrocellulose membranes. Blots were blocked in 5% skim milk in PBST [PBS and 0.1% Tween 20] for 45 min, then incubated with primary antibodies at 4 degrees Celsius overnight. […]

The next assay has as its target T1, PRMT5 (Homo sapiens, UniProt O14744).
T1 construct: we performed a global quantitative proteomic analysis of MCF7 cells using mass spectrometry; endogenous in cells; host or cells: MCF7
As to the kind of experiment: Global proteomics of MCF7 cells, PRMT5 level. The class given is cell-based. The note with it: 25 nM, 4 h, versus DMSO. The procedure: Sample preparation for global proteomics analysis. Sample preparation is similar to the previous report (Ma et al. “Strategy Based on Deglycosylation, Multiprotease, and Hydrophilic Interaction Chromatography for Large-Scale Profiling of Protein Methylation” Anal. Chem. 2017, 89 (23), 12909-12917). Briefly, treated MCF7 cells were harvested by washing with PBS buffer (Gibco, pH 7.4) and lysed in RIPA buffer supplemented with protease inhibitors for 20 min, then protein concentration was determined using a BCA Protein Assay Kit (Thermo Pierce, Rockford, IL) per manufacturer instructions. […] The concentrations of the peptide mixture were measured by peptide assay (Thermo Fisher Scientific). […]
LC-MS/MS data acquisition. Samples were analyzed on an Orbitrap Fusion Lumos Tribrid mass spectrometer (Thermo Fisher Scientific) coupled to a Dionex UltiMate 3000 UPLC system. […]
Data analysis. Protein identification and quantification by MaxQuant (version 1.5.3.8) based database searching, using the integrated Andromeda search engine with FDR <1% at peptide and protein levels. […] For label-free protein quantification (LFQ), the MaxQuant LFQ algorithm was used to quantitate the MS signals, and the proteins' intensities were represented in LFQintesnit (Schaab et al. “Analysis of High Accuracy, Quantitative Proteomics Data in the MaxQB Database” Mol. Cell. Proteomics 2012, 11 (3), M111.014068). […]

Assay [2] concerns BAF155 me2a. As to the kind of experiment: BAF155 me2a level in MDA-MB-231 cells, western blot. The class given is cell-based. Particulars: 0.5 μM, after 48 h.
From the text: as §1, §2

Assay [3] concerns PABP1 and BAF155 di-methylation by CARM1. As to the kind of experiment: PABP1 and BAF155 di-methylation (me2a) inhibition in MCF7 cells, western blot. The note with it: 24 h, 0.1 μM 3b versus 10 μM TP-064. The class given is cell-based, human.
From the text: (See Wang et al. “CARM1 Methylates Chromatin Remodeling Factor BAF155 to Enhance Tumor Progression and Metastasis” Cancer Cell 2014, 25 (1), 21-36; Lee and Bedford. “PABP1 Identified as an Arginine Methyltransferase Substrate Using High-Density Protein Arrays” EMBO Rep. 2002, 3 (3), 268-273.) In fact, asymmetric dimethylation (me2a) of these proteins are routinely investigated for CARM1 inhibitors.
as §2

In the next assay the test system is MCF7 cells. Nature of the assay: Cell proliferation assay, MCF7 cells. Particulars: 0.5 μM. The class given is cell-based, human.

T1 sequence (O14744 whole entry): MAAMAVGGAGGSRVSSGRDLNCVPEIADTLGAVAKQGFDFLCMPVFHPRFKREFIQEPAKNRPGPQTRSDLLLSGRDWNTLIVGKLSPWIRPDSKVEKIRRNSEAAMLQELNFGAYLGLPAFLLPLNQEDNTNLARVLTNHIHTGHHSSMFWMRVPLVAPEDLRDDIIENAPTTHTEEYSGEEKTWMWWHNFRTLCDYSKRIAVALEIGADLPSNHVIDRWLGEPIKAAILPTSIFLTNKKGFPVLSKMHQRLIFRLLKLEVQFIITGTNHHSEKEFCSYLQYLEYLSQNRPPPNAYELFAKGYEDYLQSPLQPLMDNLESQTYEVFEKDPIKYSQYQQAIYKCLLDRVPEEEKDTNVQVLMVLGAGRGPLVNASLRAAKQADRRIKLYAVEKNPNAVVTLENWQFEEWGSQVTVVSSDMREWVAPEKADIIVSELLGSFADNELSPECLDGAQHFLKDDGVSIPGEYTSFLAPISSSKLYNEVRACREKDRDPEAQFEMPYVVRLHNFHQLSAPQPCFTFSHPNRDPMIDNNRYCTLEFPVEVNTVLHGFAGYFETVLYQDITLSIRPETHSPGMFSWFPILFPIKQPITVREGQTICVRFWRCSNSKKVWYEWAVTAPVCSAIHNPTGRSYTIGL

For the compound `CNCCN1CCC(c2cc(CN(C)C(=O)c3cccc(Oc4ccc(OCC(=O)N5CCC(CN6CCC(CN7CCN(CC(=O)N[C@H](C(=O)N8C[C@H](O)C[C@H]8C(=O)N[C@@H](C)c8ccc(-c9scnc9C)cc8)C(C)(C)C)CC7)CC6)CC5)cc4)c3)ccn2)CC1` [Compound 3b, (2S,4R)-1-((S)-3,3-dimethyl-2-(2-(4-((1-((1-(2-(4-(3-(methyl((2-(1-(2-(methylamino)ethyl)piperidin-4-yl)pyridin-4-yl)methyl)carbamoyl)phenoxy)phenoxy)acetyl)piperidin-4-yl)methyl)piperidin-4-yl)methyl)piperazin-1-yl)acetamido)butanoyl)-4-hydroxy-N—((S)-1-(4-(4-methylthiazol-5-yl)phenyl)ethyl)pyrrolidine-2-carboxamide], the “BAF155 me2a level” value in the assay with BAF155 me2a [1] and with BAF155 me2a [2] was “decrease of BAF155 me2a level was observed” each time. The “PRMT5 protein level in proteomics” value at PRMT5 is on record as “not significantly changed”. The “Levels of PABP1 and BAF155 me2a inhibition” value in assay [3] was “at least as equivalent to that of 10 μM of TP-064”. Also, the Cell proliferation entry in the assay with MCF7 cells is recorded as “not to inhibit cell proliferation”.
